# Measured values reported in patent US20250025438A1, “Derivative of aspartic acid and use thereof in treatment of metabolic diseases such as hepatic fibrosis and non-alcoholic hepatitis” (SHENZHEN JINGTAI TECHNOLOGY CO., LTD., priority 2021, published 2025).
# Structures can show the parent of a compound that is named as a salt.
# Assays:
# α-SMA = test: In-vitro liver fibrosis model in activated LX2 cells (TGFβ1), qPCR: α-SMA; type: cell-based; conditions: LX-2 cells activated with TGFβ1 (5 ng/mL), 25 μM compound, 24 hours, real-time PCR
# Protocol: This experiment was performed strictly in accordance with the instructions of the Total RNA Kit. The steps were as follows (note: this experiment was performed on ice throughout the entire process, and special RNase-free tips were used throughout the entire process): • 1) The 12-well cell culture plate was taken out from the incubator, the cell culture medium was discarded, the cells were washed twice with 1 mL of 1×PBS, and a negative pressure suction device was used to fully remove PBS; • 2) 350 μL of TRK Lysis Buffer mixture/well was prepared as needed (mixture preparation method: 1 mL of TRKLysis Buffer+20 μL of β-mercaptoethanol), vortexed and mixed well. 350 μL was added to each well of the 12-well cell culture plate, and allowed to stand at room temperature for 5 minutes to fully lyse the cells; • 3) 70% ethanol/well was prepared as needed, vortexed and mixed well. 350 μL was added to each well of the 12-well cell culture plate, mixed well by shaking, and transferred to the spin column (spin column+collection tube were assembled); • 4) Centrifugation was performed at 4° C., 12000 g for 60 sec. […]
# [1] = system: carbon tetrachloride-induced liver fibrosis; test: Carbon tetrachloride-induced liver fibrosis model in mice, Masson staining; type: in vivo, C57BL/6 wild-type mice; conditions: CCl4 mice
# Protocol: Long-term intraperitoneal injection of carbon tetrachloride (CCl4) induced reversible liver fibrosis, which was often used to screen and evaluate anti-hepatic fibrosis drugs. C57BL/6 wild-type mice were randomly divided into control group, carbon tetrachloride group and treatment group. The treatments were as follows:
# Mice in the carbon tetrachloride group: The animals were intraperitoneally injected with carbon tetrachloride in a total amount of 0.5 μL/g, diluted with corn oil to 10 μL/g, 3 times/week. After 4 weeks of modeling, the carbon tetrachloride group was randomly divided into groups, plus the negative control group: • (1) Mice in the negative control group: The animals were intraperitoneally injected with corn oil solution, 10 μL/g, 3 times/week; at the same time, 200 μL of drinking water was administered by gavage. • (2) Mice in the carbon tetrachloride group: The animals were intraperitoneally injected with carbon tetrachloride in a total amount of 0.5 μL/g, diluted with corn oil to 10 μL/g, 3 times/week; 200 μL of normal saline was administered by gavage. • (3) Mice in the aspartic acid group: The animals were intraperitoneally injected with carbon tetrachloride in a total amount of 0.5 μL/g, diluted with corn oil to 10 μL/g, 3 times/week; 30 mg/kg aspartic acid was administered by gavage. • (4) Mice in the treatment group: The animals were intraperitoneally injected with carbon tetrachloride in a total amount of 0.5 μL/g, diluted with corn oil to 10 μL/g, 3 times/week; different doses of the compounds of the present invention were administered by gavage.
# The animals were treated for 4 weeks, and blood was collected from the eyeballs 48 hours after the last injection of carbon tetrachloride. About 1 mL of whole blood per animal was collected in an anticoagulant tube, and immediately placed on ice and allowed to stand for 1 hour. Centrifugation was performed at 4° C., 3000 rpm for 15 min. About 0.4 mL of the supernatant was taken and added into an EP tube, in which it should be carefully avoided to pipet the lower layer liquid, and then it was stored in a −80° C. refrigerator.
# It should be noted to use new paraffin when renewed; • (5 Embedding: Melted paraffin (60° C.) was added into a small iron trough, the paraffin-soaked tissue was taken and placed therein, the embedding box at the side with label was buckled, and the melted paraffin was added again. It should be noted that air bubbles should be removed during the operation process; • (6 The paraffin-embedded tissue was placed on an ice table of an automatic embedding machine. After the paraffin solidified, it was placed in a −20° C. refrigerator for further cooling.
# • (1 The wax block with embedded tissue was placed at the corresponding position of a microtome; • (2 The slice thickness was adjusted to the thickness required for the experiment. Generally, 3 to 4 μm should be used for slicing; • (3 6 to 8 Consecutive tissue sections were gently placed and fully stretched in a 55° C. water bath expander; • (4 The continuous tissue sections were gently separated by tweezers; • (5 A wax section that was completely stretched and had no wrinkles in the tissue was selected, and taken out with an adhesive slide so that the section was attached to the slide;
# Masson staining is one of the classic and authoritative staining methods for collagen fiber staining. Collagen fibers appear […].
# [2] = 20 mg/kg/d by gavage, 4 weeks, vs untreated group and aspartic acid group (30 mg/kg/d), FIG. 6
smiles,measurement,setting,value
COC(=O)[C@@H](N)CC(=O)O [Compound 4],α-SMA gene expression inhibition rate,α-SMA,B (B represented that the inhibition rate was 10% to 25%)
same,collagen deposition in the mouse liver tissue (Masson),[1]; [2],reduced
COC(=O)C[C@H](N)C(=O)O [Compound 6],α-SMA gene expression inhibition rate,α-SMA,A (A represented that the inhibition rate was 25% or above)
same,collagen deposition in the mouse liver tissue (Masson),"[1]; 10 mg/kg/bid, 50 mg/kg/bid, 150 mg/kg/bid, vs untreated group, FIG. 7",decreased
same,collagen deposition in the mouse liver tissue (Masson),"[1]; 25 mg/kg/d by gavage, 4 weeks, vs untreated group and aspartic acid group (30 mg/kg/d), FIG. 6",reduced
N[C@@H](CCC(=O)O)C(=O)O [Compound 47],collagen deposition in the mouse liver tissue (Masson),[1]; [2],reduced
"COC(=O)C[C@H](N)C(=O)OCOC(=O)[C@@H](N)CC(=O)OC [Compound 54, 4-dimethyl O′1,01-methylene (2S,2'S)-bis (2-aminosuccinate) hydrochloride]",collagen deposition in the mouse liver tissue (Masson),"[1]; 40 mg/kg/d by gavage, 4 weeks, vs untreated group and aspartic acid group (30 mg/kg/d), FIG. 6",reduced
